Holding throughout (assay type): functional, cell-based
Experiment [1] deals with A549. The experiment in a line: Antiproliferative activity against human A549 cells at 50 uM after 24 hrs by CCK-8 assay. On the technique in general: Tetrazolium dyes change colour on reduction, which living cells bring about.
The subject of experiment [2] is T-24. The experiment is described as follows: Antiproliferative activity against human T24 cells at 50 uM after 24 hrs by CCK-8 assay.
In experiment [3] the test system is HeLa. The experiment is described as follows: Antiproliferative activity against human HeLa cells at 50 uM after 24 hrs by CCK-8 assay.
Experiment [4] concerns HCT-116. The experiment in a line: Antiproliferative activity against human HCT116 cells at 50 uM after 24 hrs by CCK-8 assay.
For experiment [5], the system named is MCF7. The experiment in a line: Antiproliferative activity against human MCF7 cells at 50 uM after 24 hrs by CCK-8 assay.
The test system of experiment [6] is SH-SY5Y. The experiment is described as follows: Antiproliferative activity against human SH-SY5Y cells at 50 uM after 24 hrs by CCK-8 assay.
In experiment [7] the test system is A549. The experiment in a line: Antiproliferative activity against human A549 cells after 24 hrs by CCK-8 assay. Particulars: A549, 24 h.
For experiment [8], the system named is T-24. The experiment in a line: Antiproliferative activity against human T24 cells after 24 hrs by CCK-8 assay. As to conditions: T-24, 24 h.
Experiment [9] relates to HeLa. The experiment is described as follows: Antiproliferative activity against human HeLa cells after 24 hrs by CCK-8 assay.
Experiment [10] relates to HCT-116. The experiment in a line: Antiproliferative activity against human HCT116 cells after 24 hrs by CCK-8 assay. Particulars: HCT-116, 24 h.
The test system of experiment [11] is MCF7. The experiment is described as follows: Antiproliferative activity against human MCF7 cells after 24 hrs by CCK-8 assay. Particulars: MCF7, 24 h.
Experiment [12] deals with SH-SY5Y. The experiment in a line: Antiproliferative activity against human SH-SY5Y cells after 24 hrs by CCK-8 assay.

Drawing on ChEMBL document CHEMBL4196104, “Hawaiienols A-D, Highly Oxygenated p-Terphenyls from an Insect-Associated Fungus, Paraconiothyrium hawaiiense” (J Nat Prod, 2018), this text covers Activity and IC50 for four molecules.

Active and inactive are the calls of the source. The rule behind the calls is not given here.

Turning to `COc1ccc([C@]23O[C@](c4ccc(OC)cc4)([C@@H](O)[C@@H]2O)[C@@H](O)[C@@H]3O)cc1`, the result with A549 [1], in the experiment with T-24 [2], in the experiment with HeLa [3], with HCT-116 [4], with MCF7 [5] and in the experiment with SH-SY5Y [6] was inactive.
As usually defined, the IC50 is the concentration needed to halve the response being measured. Read a high IC50 as weaker potency in that assay. With `COc1ccc([C@]23O[C@@H]4C2O[C@](OC)([C@H]3O)[C@]4(O)c2ccc(O)cc2)cc1`, the 50% inhibitory concentration (IC50) in the experiment with A549 [7] came to 23.1 µM; with T-24 [8], 46.6 µM; in the experiment with HeLa [9], 19.7 µM; with HCT-116 [10], 57.1 µM; with MCF7 [11], 42.9 µM; in the experiment with SH-SY5Y [12], 9.3 µM.
On to `COc1ccc([C@]2(O)C(=O)[C@@]3(OC)OC2[C@@H](O)[C@@]3(O)c2ccc(OC)cc2)cc1`, for which the outcome in the experiment with A549 [1], in the experiment with T-24 [2], with HeLa [3], in the experiment on HCT-116 [4], in the experiment on MCF7 [5] and in the experiment on SH-SY5Y [6] was inactive.
With `COc1ccc([C@]2(O)[C@H](O)C(=O)[C@@](O)(c3ccc(OC)cc3)[C@H](O)[C@H]2O)cc1`, the result with A549 [1], in the experiment with T-24 [2], in the experiment on HeLa [3], in the experiment with HCT-116 [4], with MCF7 [5] and in the experiment with SH-SY5Y [6] was inactive.
